Key:
[1] = test system: SF268 (human glioblastoma) cell line; assay: Preliminary in vitro cytotoxicity screening against SF268 cell line; type: cell-based
Source text: In contrast to the 1,12-carborane derivative 4, the 1,2- and 1,7-isomers undergo a deboronation reaction in polar solvents to afford the corresponding zwitterionic nido-carborane phosphonium species.

[2] = Deboronation of closo-carborane phosphonium salts in polar solvents; type: physicochemical; conditions: polar solvents such as DMSO
Source text: The deboronation reaction was not observed for 4, which contains 1,12-carborane. The inventors hypothesise that 4 is highly resistant to the deboronation reaction because no boron atoms within the cluster are bonded to two adjacent and electronegative carbon atoms. The facile deboronation of closo-1,2-carborane under mild, non-basic conditions is known with alcohols, water and acids (E. Svantesson, J. Pettersson, Å. Olin, K. Markides, S. Sjöberg, Acta Chem. Scand., 1999, 53, 731. V. A. Ol'shevskaya, R. Ayuob, Z. G. Brechko, P. V. Petrovskii, E. G. Kononova, G. L. Levit, V. P. Krasnov, V. N. Charushin, O. N. Chupakhin, V. N. Kalinin, J. Organomet. Chem., 2005, 690, 2761. Y.-J. Lee, J.-D. Lee, J. Ko, S.-H. Kim, S. O. Kang, Chem. Commun., 2003, 1364) and has also been observed when functional groups located α- to the cage are electron-withdrawing and the compounds are exposed to polar solvents containing small amounts of H2O or MeOH (J. J. Schaeck, S. B. Kahl, Inorg. Chem., 1999, 38, 204). In the present case, the deboronation reactions occur in polar solutions such as dry DMF and thus most likely proceed by nucleophilic attack of the iodide counter-ion on the most electrophilic boron atoms in the cage, i.e. B3 (or B6) for 1,2-carborane and B2 (or B3) for 1,7-carborane.

| Molecule | GI50 [1] [µM] | deboronation reaction to nido-carborane zwitterion [2] |
| --- | --- | --- |
| C[P+](c1ccccc1)(c1ccccc1)c1ccccc1 [TPMP, triphenylmethylphosphonium, reference compound] | 12.5 |  |
| methyldiphenyl(1,2-dicarba-closo-dodecaboranyl)phosphonium iodide [Compound 5] |  | spontaneously deboronate |
| methyldiphenyl(1,7-dicarba-closo-dodecaboranyl)phosphonium iodide [Compound 6] |  | spontaneously deboronate |
| methyldiphenyl(1,12-dicarba-closo-dodecaboranyl)phosphonium iodide [Compound 4] | > 40 | not observed |

Reference: patent US20100111867A1, “CARBORANE-PHOSPHONIUM COMPOUNDS AND THEIR USE IN BORON NEUTRON CAPTURE THERAPY AND IMAGING” (THE UNIVERSITY OF SYDNEY, priority 2007, published 2010)
